# From paper PMC3856494, “Radiofluorination and biological evaluation of N-aryl-oxadiazolyl-propionamides as potential radioligands for PET imaging of cannabinoid CB2 receptors” (Organic and Medicinal Chemistry Letters, 2013)
# Where two headings read alike, the source gives them in different places.
# How the values were obtained:
# [1] = HPLC-based logD determination; type: physicochemical; settings: RP-HPLC, reference compounds
# Description: The distribution coefficients of [^18F]1 and [^18F]2 were also calculated from RP-HPLC retention times in three different systems: (1) isocratic elution (60% MeCN/20 mM NH4OAc at a flow rate of 1 mL/min) and (2) gradient elution (starting from 10% MeCN/20 mM NH4OAc aq. for 10 min with a gradient to 90% MeCN/20 mM NH4OAc aq. over 30 min at a flow rate of 1 mL/min) on a Reprosil-Pur C18-AQ column (5 μm, 250 × 4.6 mm, Dr. Maisch HPLC GmbH, Ammerbruch-Entringen, Germany), and (3) isocratic elution (52.5% MeCN/20 mM NH4OAc at a flow rate of 1 mL/min) on a Prodigy 5 μm C8 (250 × 4 mm; Phenomenex Ltd, Aschaffenburg, Germany) using the reference compounds following the protocol according to the EU guideline 67/548/EWG [44].
# human CB1R = human CB1R (Homo sapiens, UniProt P21554); test: In vitro CB receptor affinity assay, displacement of [3H]CP55,940, CHO cells transfected with human CB1R; type: binding
# Description: (§1) For binding experiments, Chinese hamster ovary (CHO) cell lines stably transfected with human CB1R human and CB2R were used according to the procedures previously described. […] The binding experiments were performed in triplicates, and data were given as mean values from independent experiments.
# human CB2R = human CB2R (Homo sapiens, UniProt P34972); test: In vitro CB receptor affinity assay, displacement of [3H]CP55,940, CHO cells transfected with human CB2R; type: binding
# Description: as §1
# Chain of human CB2R (P34972 whole entry): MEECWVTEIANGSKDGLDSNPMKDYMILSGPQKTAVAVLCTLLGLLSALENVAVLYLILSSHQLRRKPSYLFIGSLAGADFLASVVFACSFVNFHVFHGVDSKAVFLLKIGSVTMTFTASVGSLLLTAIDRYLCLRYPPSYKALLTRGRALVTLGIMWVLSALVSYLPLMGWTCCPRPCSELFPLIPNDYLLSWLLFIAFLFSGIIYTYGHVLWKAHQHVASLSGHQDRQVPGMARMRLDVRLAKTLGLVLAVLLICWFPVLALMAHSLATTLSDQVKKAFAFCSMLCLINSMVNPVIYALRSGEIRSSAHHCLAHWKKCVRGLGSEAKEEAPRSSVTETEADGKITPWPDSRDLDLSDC
# Chain of human CB1R (P21554 whole entry): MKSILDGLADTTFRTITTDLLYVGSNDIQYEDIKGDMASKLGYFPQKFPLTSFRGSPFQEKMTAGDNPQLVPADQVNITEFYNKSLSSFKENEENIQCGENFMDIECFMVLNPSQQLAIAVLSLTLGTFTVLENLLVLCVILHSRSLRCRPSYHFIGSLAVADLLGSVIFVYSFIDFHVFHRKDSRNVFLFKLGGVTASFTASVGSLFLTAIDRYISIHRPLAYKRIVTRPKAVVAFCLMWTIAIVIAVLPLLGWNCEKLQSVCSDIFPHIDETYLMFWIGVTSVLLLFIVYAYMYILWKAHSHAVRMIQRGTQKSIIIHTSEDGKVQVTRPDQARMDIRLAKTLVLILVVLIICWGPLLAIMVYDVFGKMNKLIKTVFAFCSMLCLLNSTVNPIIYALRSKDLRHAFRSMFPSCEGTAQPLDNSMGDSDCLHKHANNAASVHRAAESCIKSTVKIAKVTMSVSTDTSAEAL
"Ki (human CB1R; [3H]CP55,940 displacement, hCB1R CHO cells, read-out: Ki CB1R) [nM]",melting point [°C],"Ki (human CB2R; [3H]CP55,940 displacement, hCB2R CHO cells, read-out: Ki CB2R) [nM]",Structure (SMILES),"chromatographic logD ([1]; Prodigy 5 μm C8 column, isocratic 52.5% MeCN/20 mM NH4OAc, n = 3 to 6, read-out: logD Prodigy 5 μ C8 Isocratic)","chromatographic logD ([1]; Reprosil-Pur C18-AQ column, gradient 10% to 90% MeCN/20 mM NH4OAc, n = 3 to 6, read-out: logD Reposil-Pur C18-AQ Gradient)","chromatographic logD ([1]; Reprosil-Pur C18-AQ column, isocratic 60% MeCN/20 mM NH4OAc, n = 3 to 6, read-out: logD Reposil-Pur C18-AQ Isocratic)",Ki (human CB1R) [nM],Ki (human CB2R) [nM]
,,,"O=C(CCc1nc(-c2ccc(F)cc2Br)no1)Nc1ccc2c(c1)c1ccccc1n2CCF [Compound 1, 3-[3-(2-Bromo-4-fluorophenyl)-1,2,4-oxadiazol-5-yl]-N-[9-(2-fluoroethyl)-9H-carbazol-3-yl]propanamide]",3.86 ± 0.33,3.82 ± 0.1,4.21 ± 0.32,> 1000,2.32 ± 2.12
> 1000,104,> 1000,"O=C(O)CCc1nc(-c2ccc(F)cc2Br)no1 [Compound 10, 3-(3-(2-Bromo-4-fluorophenyl)-1,2,4-oxadiazol-5-yl)propanoic acid]",,,,,
